{"source": "patent US20120190707A1", "about": "“SELECTIVE INHIBITORS OF AKT AND METHODS OF USING SAME” (priority 2008, published 2012)", "key": {"Akt1": {"target": "Akt1 (Homo sapiens, UniProt P31749)", "sequence (P31749 whole entry)": "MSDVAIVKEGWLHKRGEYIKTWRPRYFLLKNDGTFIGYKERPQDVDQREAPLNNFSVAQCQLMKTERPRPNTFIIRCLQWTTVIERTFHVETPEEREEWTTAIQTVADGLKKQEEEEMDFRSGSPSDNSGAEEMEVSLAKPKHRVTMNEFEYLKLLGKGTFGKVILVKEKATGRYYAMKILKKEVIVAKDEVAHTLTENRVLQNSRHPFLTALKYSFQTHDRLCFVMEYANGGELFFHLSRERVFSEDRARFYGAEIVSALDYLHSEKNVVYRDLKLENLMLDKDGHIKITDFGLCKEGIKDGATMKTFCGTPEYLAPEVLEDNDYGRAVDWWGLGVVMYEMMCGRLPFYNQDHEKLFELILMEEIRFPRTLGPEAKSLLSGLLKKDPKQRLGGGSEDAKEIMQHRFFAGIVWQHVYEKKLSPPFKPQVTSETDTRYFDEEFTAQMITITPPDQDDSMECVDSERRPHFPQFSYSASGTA", "test": "Akt1 inhibition assay using GSK-3 as a substrate (immuno-blotting with anti-phospho-GSK-3α/β)", "assay_type": "biochemical", "protocol": "Here the top 4000 compounds out of 50000 docked compounds were selected using FlexX and Drugscore (BioSolvIT). The top 4000 docked structures were further evaluated and ranked according to Goldscore and Chemscore functions (CSCORE). A list of common 200 compounds was then selected among ranked top 700 compounds according to both scoring functions (FIG. 1B). […] The remaining 100 compounds were experimentally tested up to 30 μM against Akt1. The inhibitory activity was evaluated for the selected compounds by using Z'-LYTE™ kit assay provided by Invitrogen Corporation (19). […] Corning® 384-well low volume plates (20 μl) were used. The fluorescent-enzymatic assay has been performed following the protocol provided by Invitrogen Corporation, using a fluorescent plate reader (Victor2, Perkin-Elmer). […] C) Lineweaver-Burk Km and Km(app) evaluation for Akt1. Each measurement was performed in triplicate. […] The Ki and the Km(app) were calculated at fixed inhibitor concentrations, as reported in the text. All constant values were definitely evaluated by fitting the data to the Lineweaver-Burk plot; D) Akt1 inhibition assay using GSK-3 as a substrate. Comparison of compounds 1 and 2 (Table 1) with H89 at 10 μM. E) Dose response for compound 1. […]"}, "Abl1": {"target": "Abl1 (Homo sapiens, UniProt P00519)", "sequence (P00519 whole entry, species assumed)": "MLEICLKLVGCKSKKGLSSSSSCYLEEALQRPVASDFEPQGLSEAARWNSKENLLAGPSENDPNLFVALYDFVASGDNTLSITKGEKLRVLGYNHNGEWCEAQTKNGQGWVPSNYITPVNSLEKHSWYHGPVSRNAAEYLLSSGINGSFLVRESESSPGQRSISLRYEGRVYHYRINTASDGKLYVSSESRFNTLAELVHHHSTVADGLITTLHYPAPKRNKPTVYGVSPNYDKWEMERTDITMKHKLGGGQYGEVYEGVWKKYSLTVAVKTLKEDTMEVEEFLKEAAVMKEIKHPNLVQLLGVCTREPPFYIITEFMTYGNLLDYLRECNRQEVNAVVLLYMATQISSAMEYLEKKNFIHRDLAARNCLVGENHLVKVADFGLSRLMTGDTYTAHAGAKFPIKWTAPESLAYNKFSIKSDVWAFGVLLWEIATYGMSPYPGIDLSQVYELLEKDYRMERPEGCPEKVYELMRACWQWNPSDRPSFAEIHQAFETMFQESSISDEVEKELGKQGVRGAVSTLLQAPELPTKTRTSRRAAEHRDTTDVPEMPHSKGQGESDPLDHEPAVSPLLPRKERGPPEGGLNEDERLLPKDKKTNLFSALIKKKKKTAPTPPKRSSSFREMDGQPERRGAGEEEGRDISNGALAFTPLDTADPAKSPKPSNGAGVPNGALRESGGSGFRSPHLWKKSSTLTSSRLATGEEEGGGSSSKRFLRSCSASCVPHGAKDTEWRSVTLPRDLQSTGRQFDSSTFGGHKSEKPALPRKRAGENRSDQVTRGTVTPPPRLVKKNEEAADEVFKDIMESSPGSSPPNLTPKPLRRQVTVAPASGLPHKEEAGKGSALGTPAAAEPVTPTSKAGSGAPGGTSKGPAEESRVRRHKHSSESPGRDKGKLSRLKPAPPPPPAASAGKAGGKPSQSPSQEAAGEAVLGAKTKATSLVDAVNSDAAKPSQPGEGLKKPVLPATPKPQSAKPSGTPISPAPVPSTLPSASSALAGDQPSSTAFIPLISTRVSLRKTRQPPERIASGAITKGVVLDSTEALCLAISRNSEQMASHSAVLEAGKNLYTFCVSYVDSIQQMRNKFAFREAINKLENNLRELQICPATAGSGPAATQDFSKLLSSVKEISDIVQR", "test": "Non related protein kinase Abl1 inhibition", "assay_type": "biochemical", "settings": "concentrations up to 100 μM", "excerpt": "In addition, we tested our compounds against a non related protein kinase, Abl1 (22), which is a tyrosine kinase under investigation in our laboratory.\n(§1) We recently reported on the direct evaluation of a number of in silico approaches to identify AKT inhibitors (Forino et al., 2005) We achieved experimental validation of selected compounds using both a fluorescence-based enzymatic assay and a substrate phosphorylation assay involving the protein GSK-3 (Forino et al., 2005). Briefly, the virtual docking approach consists of selecting the top 4,000 out of 50,000 docked compounds, using a variety of computational docking approaches, including a consensus score among two different scoring functions (Forino et al., 2005). Of those, 100 compounds were selected based on ranking and favorable docking geometry."}, "PI3K": {"test_system": "PI3K", "test": "Activity of other protein kinases: PI3K", "assay_type": "biochemical", "settings": "100 micro.M", "excerpt": "as §1"}, "AKT [1]": {"test_system": "AKT", "test": "AKT phosphorylation and expression by western blot in MeWo melanoma cells", "assay_type": "cell-based", "protocol": "(§2) (A) MeWo melanoma cells growing in 60 mm plates were treated with the indicated concentration of the inhibitor for 4 h before proteins were prepared for western blot analysis using the indicated antibodies. Level of beta.actin was monitored as a control for protein loading. (B) Experiment was performed as indicated in panel A, except that cells were harvested after 24 h for analysis of cell death using trypan blue staining. (C) Melanoma (MeWo), prostate cancer (PC3) and breast cancer (MCF7) cells were treated with BI-69A11 at the indicated concentrations; levels of AKT phosphorylation or expression were assessed 4 h later. The level of beta.actin used as a control for protein loading. (D) Experiment was performed as indicated in panel C, except that cells were harvested after 4 h for analysis of cell death using trypan blue staining.\nTo evaluate the effectiveness of BI-69A11 on melanoma cells we assessed the effect of different concentrations on AKT phosphorylation in MeWO cells.\n(§3) For western blotting techniques, cells were lysed in RIPA buffer containing 50 mM TrisHCl pH7.4, 150 mM NaCl, 2 mM EDTA, 1% NP-40, 0.1% SDS. The protein concentration was estimated using the Coomassie Protein assay kit (Thermo Scientific, Rockford, Ill., USA). Equal concentrations of cell lysate (30-50 ug) were resolved on a 10% polyacrylamide gel and transferred onto Nitrocellulose membrane (GE Amersham). Membranes were blocked for 1-2 hours in either 3% BSA or 5% nonfat dried milk in Tris-buffered saline containing 0.05% Tween 20. Primary antibody incubations were performed overnight at 4° C. with shaking. The blots were washed followed by incubation with a secondary antibody incubation for 1 hour at room temperature. After washing, the blots were scanned on the Odyssey Licor scanner at the appropriate wavelength and the image was captured using the Odyssey software."}, "AKT [2]": {"test_system": "AKT", "test": "AKT expression by western blot in MCF7 breast cancer cells", "assay_type": "cell-based", "settings": "MCF7, 5 and 10 micro.M", "protocol": "as §2\nFor western blotting techniques, cells were lysed in RIPA buffer containing 50 mM TrisHCl pH7.4, 150 mM NaCl, 2 mM EDTA, 1% NP-40, 0.1% SDS. The protein concentration was estimated using the Coomassie Protein assay kit (Thermo Scientific, Rockford, Ill., USA). Equal concentrations of cell lysate (30-50 ug) were resolved on a 10% polyacrylamide gel and transferred onto Nitrocellulose membrane (GE Amersham). Membranes were blocked for 1-2 hours in either 3% BSA or 5% nonfat dried milk in Tris-buffered saline containing 0.05% Tween 20. […]"}, "PC3 prostate tumor cells": {"test_system": "PC3 prostate tumor cells", "test": "Cell death by trypan blue staining, PC3", "assay_type": "cell-based", "settings": "PC3, 5 micro.M, within 4 hours", "protocol": "as §2\nFor the proliferation assays, cells were treated as described above. However, instead of scraping cells into the serum-free medium, floating cells were collected in a 15 mL centrifuge tube whereas adherent cells trypsinized gently. The total cell population was pooled and counted on a hemocytometer after staining with Trypan Blue."}, "PARP": {"test_system": "PARP", "test": "PARP cleavage in 903 and 29-1 cells", "assay_type": "cell-based, human", "settings": "2, 4 and 6 hours; listed as BI-69A11", "protocol": "(A) 903 and 29-1 cells were exposed to different concentrations of BI-69A11 or UV light as a positive control and the percentage of cell death determined by trypan blue exclusion assay. (B) PARP cleavage was determined in 903 and 29-1 cells after treatment with BI-69A11 at 2, 4 and 6 hours.\nSince AKT activity is important for tumor cell survival, its inhibition is expected to result in cell death. We thus monitored cell death in melanoma cells that were treated with BI-69A11.\nas §3"}, "[3]": {"settings": "mouse, in vivo"}}, "note": "Entries after “also recorded” stand apart in the source; their conditions may differ."}
{"smiles": "O=C(/C=C/c1nc2ccccc2[nH]1)c1c(O)nc2ccc(Cl)cc2c1-c1ccccc1", "note": "[Compound 2, (E)-3-(3-(1H-benzo[d]imidazol-2-yl)acryloyl)-6-chloro-4-phenylquinolin-2(1H)-one]", "values": [{"measurement": "inhibition of GSK-3 phosphorylation", "setting": "Akt1", "result": "low micromolar range"}, {"measurement": "inhibition of Abl1", "setting": "Abl1", "result": "did not affect"}, {"measurement": "effect on PI3K activity", "setting": "PI3K", "result": "did not affect"}, {"measurement": "AKT phosphorylation on S473", "setting": "AKT [1]; 3 micro.M, 4 h", "result": "partial inhibition"}, {"measurement": "AKT protein levels", "setting": "AKT [1]; 5 and 10 micro.M", "result": "reduced levels of AKT protein"}, {"measurement": "basal level of AKT phosphorylation", "setting": "AKT [1]; 5 and 10 micro.M, 4 h", "result": "effectively inhibited"}, {"measurement": "AKT phosphorylation", "setting": "AKT [1]; low doses (<0.3 micro.M), 4 h", "result": "did not affect"}, {"measurement": "AKT protein levels", "setting": "AKT [2]", "result": "not affected"}, {"measurement": "cell death", "setting": "PC3 prostate tumor cells", "result": "about 25%"}, {"measurement": "PARP cleavage, 903 cells compared with 29-1", "setting": "PARP", "result": "more pronounced in the UAC903 cells; also recorded: Increased PARP cleavage"}, {"measurement": "cytokines in the blood, treated vs. control", "setting": "[3]", "result": "induction of TNFalpha"}, {"measurement": "toxicity by blood work", "setting": "[3]", "result": "lack of toxicity"}]}
